Data published in patent US20250204541A1, “GAS PHASE TREATMENT OF PRODUCE” (priority 2022, published 2025).

Legend:
Assay type in all cases: in vivo
[1] = system: Colletotrichum gloeosporioides (Cg); experiment: Antifungal activity of vapor against Colletotrichum gloeosporioides in avocados; conditions: Example 9, vapor of 3 mL in a Petri dish for 72 hours, 7 days of incubation
Procedure: Example 7. The antifungal activity of AITC and DADS vapor against Colletotrichum gloeosporioides (Cg) was tested in avocados. All test pieces were wounded by removing the stem and infected by dispensing 1000 Cg spores suspended in 10 μL of water into the wound. The test groups consisted of avocados that were: untreated and uninfected; untreated and infected; treated by dipping in a solution of 0.1 g/L of prochloraz; exposed to the vapor of 3 mL of AITC disposed in a Petri dish; and exposed to the vapor of 3 mL of DADS disposed in a Petri dish. FIG. 9 quantifies the infection results. AITC vapor reduced the incidence of Cg mold by 97% compared to the untreated test group and 70% compared to the prochloraz treated test group. DADS vapor reduced the incidence of Cg mold by 60% compared to the untreated test group.
Example 8. The antifungal activity of a range of DADS vapor exposure times was tested against Cg in avocados. All test pieces were wounded by removing the stem and infected by dispensing 1000 Cg spores suspended in 10 μL of water into the wound. The test groups consisted of avocados that were: infected and untreated; and exposed to the vapor of 3 mL of DADS in a Petri dish for 24 hours, 48 hours, and 72 hours. FIG. 10 quantifies the infection results. Test group exposed to DADS vapor at all exposure times reduced the incidence of Cg mold compared to the untreated test group. A 24 hour DADS exposure reduced the incidence of Cg mold by 8%. A 48 hour DADS exposure reduced the incidence of Cg mold by 25%. A 72 hour DADS exposure reduced the incidence of Cg mold by 57%.
Example 9. The antifungal activity of a range of AITC and carvacrol vapor exposure times was tested against Cg in avocados. To measure the effect of the various treatments on ripening, durometer shore was taken after 7 days of incubation at ambient temperature and high humidity. All samples were wounded by removing the stem and infected by dispensing 1000 Cg spores suspended in 10 μL of water in the wound. The test groups consisted of avocados that were: infected and left untreated on the benchtop; infected and left untreated under a fume hood; exposed to the vapor of 3 mL of AITC in a Petri dish for 24 hours, 48 hours, and 72 hours; and exposed to the vapor of 3 mL of carvacrol in a Petri dish for 72 hours. FIG. 11 quantifies the infection results. […] All exposure times to AITC vapor reduced the incidence of Cg mold compared to the untreated samples. A 24 hour AITC exposure reduced the incidence of Cg mold by 90%. A 48 hour AITC exposure reduced the incidence of Cg mold by 97%. A 72 hour AITC exposure reduced the incidence of Cg mold by 83%. […]
Example 21. The antifungal activity of avocados exposed to AITC vapor and prochloraz was tested against Cg in avocados. To measure the effect of the various treatments on ripening, durometer shore was taken after 5 days of incubation at ambient temperature (about 20° C. to about 25° C.) and high humidity (about 88% relative humidity to about 93% relative humidity). All samples were wounded by removing the stem and infected by dispensing 1000 Cg spores suspended in 10 μL of water in the wound. Exposure to vapor was done by placing the avocados in an airtight container, dispensing AITC onto Whatman filter paper discs, suspending the discs in front of a battery-powered fan, closing the container and incubating the avocados for 30 minutes. After vapor exposure, the avocados were left at ambient temperature, high humidity, and assessed for Cg mold on day 5. Treatment groups consisted of avocados that were: exposed for 30 minutes to the vapor of 125 μL of AITC disposed on a filter paper disc; dipped in a solution of 0.1 g/L of prochloraz and placed to dry on a rack in front of a fan for 30 min; infected and left untreated; and uninfected and untreated. […] To prepare the 0.1 g/L of prochloraz, 10 mg of prochloraz was mixed with 10 mL of ethanol and 90 mL of water. […] A 24 hour AITC exposure reduced the incidence of Cg mold by 90%. […]

[2] = system: Penicillium digitatum (Pd); experiment: Antifungal activity of vapor against Penicillium digitatum in wounded, infected mandarins; conditions: vapor of 62.5 μL AITC and/or 125 μL of all other compounds for 30 minutes, assessed after 6 days
avocados = experiment: Durometer shore (ripening/firmness) of treated avocados; conditions: Example 21; Cg-infected avocados; after 5 days; AITC 125 μL vapor 30 minutes, prochloraz 0.1 g/L dip
Procedure: Example 9. The antifungal activity of a range of AITC and carvacrol vapor exposure times was tested against Cg in avocados. To measure the effect of the various treatments on ripening, durometer shore was taken after 7 days of incubation at ambient temperature and high humidity. All samples were wounded by removing the stem and infected by dispensing 1000 Cg spores suspended in 10 μL of water in the wound. The test groups consisted of avocados that were: infected and left untreated on the benchtop; infected and left untreated under a fume hood; exposed to the vapor of 3 mL of AITC in a Petri dish for 24 hours, 48 hours, and 72 hours; and exposed to the vapor of 3 mL of carvacrol in a Petri dish for 72 hours. FIG. 11 quantifies the infection results. […] All exposure times to AITC vapor reduced the incidence of Cg mold compared to the untreated samples. A 24 hour AITC exposure reduced the incidence of Cg mold by 90%. A 48 hour AITC exposure reduced the incidence of Cg mold by 97%. A 72 hour AITC exposure reduced the incidence of Cg mold by 83%.
Example 10. The antifungal activity of a range of AITC vapor exposure times were tested against Cg in avocados. To measure the effect of the various treatments on ripening, durometer shore was taken after 6 days of incubation at ambient temperature and high humidity. All samples were wounded by removing the stem and infected by dispensing 1000 Cg spores suspended in 10 μL of water in each wound. The test groups consisted of avocados that were: infected and left untreated on the benchtop; infected and left untreated in a fume hood; exposed to the vapor of 3 mL of AITC in a Petri dish for 24 hours, 48 hours, and 72 hours. FIG. 13 quantifies the infection results. […] All exposure times to AITC vapor reduced the incidence of Cg mold compared to the untreated samples.
Example 21. The antifungal activity of avocados exposed to AITC vapor and prochloraz was tested against Cg in avocados. To measure the effect of the various treatments on ripening, durometer shore was taken after 5 days of incubation at ambient temperature (about 20° C. to about 25° C.) and high humidity (about 88% relative humidity to about 93% relative humidity). All samples were wounded by removing the stem and infected by dispensing 1000 Cg spores suspended in 10 μL of water in the wound. Exposure to vapor was done by placing the avocados in an airtight container, dispensing AITC onto Whatman filter paper discs, suspending the discs in front of a battery-powered fan, closing the container and incubating the avocados for 30 minutes. After vapor exposure, the avocados were left at ambient temperature, high humidity, and assessed for Cg mold on day 5. Treatment groups consisted of avocados that were: exposed for 30 minutes to the vapor of 125 μL of AITC disposed on a filter paper disc; dipped in a solution of 0.1 g/L of prochloraz and placed to dry on a rack in front of a fan for 30 min; infected and left untreated; and uninfected and untreated. […] To prepare the 0.1 g/L of prochloraz, 10 mg of prochloraz was mixed with 10 mL of ethanol and 90 mL of water. […] A 24 hour AITC exposure reduced the incidence of Cg mold by 90%. […] The mean shore value for the untreated avocados was 28.8 (standard deviation (SD)=10.8). The mean shore value for the infected avocados was 47.3 (SD=11.8). The mean shore value of the positive control, prochloraz treated avocados was 44.3 (SD=14.7). The mean shore value of the AITC treated avocados was 61.1 (SD=10.5).
Durometer Shore Measurement: A Fruit Hardness Tester—HPE III Fff w/Sphere Ø 5.0 mm Test Anvil is used for the measurements. The Operating Procedure is as follows: • 1) At room temperature and 1 atm pressure, switch on the measuring device and press the hull or sleeve against the specimen so that the contact surface of the pressure plate rests on the fruit. […]

## Cc1ccc(C(C)C)cc1O [carvacrol]
[1]
  reduction of the incidence of Cg mold: did not reduce the incidence of Cg mold

## C=CCc1ccc(O)c(OC)c1 [eugenol]
[2]
  performance against Pd compared with untreated samples: performed better than the untreated samples

## CCCN(CCOc1c(Cl)cc(Cl)cc1Cl)C(=O)n1ccnc1 [prochloraz, reference compound]
avocados
  mean shore value: 44.3 (SD=14.7) shore
